Species: Rattus norvegicus
Experiment: Open TG-GATES - Regimen: Single
Type: toxicity, organism-based, Sprague-Dawley
Set-up: regimen Single, gender Male, age 6 weeks
Conditions: in vivo, po, 100 mg/kg, route gavage, dose level Low; for APTT / Bas / Eos / Fbg / Hb / Ht / Lym / MCH / MCHC / MCV / Mono / Neu / PT / Plat / RBC / Ret / WBC: tissue Blood; for KIDNEY_L / KIDNEY_R / KIDNEY_TOTAL: tissue Kidney; for LIVER: tissue Liver; for A/G / ALP / ALT / AST / BUN / CRE / Ca / Cl / DBIL / GLC / IP / K / LDH / Na / PL / RALB / TBIL / TC / TG / TP / gamma-GTP: tissue Plasma

CC(=O)Nc1ccc2c(c1)Cc1ccccc1-2 [2-ACETYLAMINOFLUORENE]
TERMINAL_BW (9 h): 218.6 g | APTT (9 h): 19 s | Bas (9 h): 0.6% | Eos (9 h): 0.8% | Fbg (9 h): 227.6 mg/dL | Hb (9 h): 14.1 g/dL | Ht (9 h): 40.8% | Lym (9 h): 72.8% | MCH (9 h): 21.4 pg | MCHC (9 h): 34.5% | MCV (9 h): 62.2 fL | Mono (9 h): 3% | Neu (9 h): 22% | PT (9 h): 12.9 s | Plat (9 h): 124.3 x10_4/uL | RBC (9 h): 655 x10_4/ul | Ret (9 h): 6.7% | WBC (9 h): 79.5 x10_2/uL | KIDNEY_L (9 h): 0.9 g | KIDNEY_R (9 h): 0.9 g | KIDNEY_TOTAL (9 h): 1.9 g | LIVER (9 h): 9.5 g | A/G (9 h): 1.5 | ALP (9 h): 754.8 IU/L | ALT (9 h): 31 IU/L | AST (9 h): 67.2 IU/L | BUN (9 h): 10.8 mg/dL | CRE (9 h): 0.4 mg/dL | Ca (9 h): 10.5 mg/dL | Cl (9 h): 104.2 meq/L | DBIL (9 h): 0.064 mg/dL | GLC (9 h): 211.2 mg/dL | IP (9 h): 9.1 mg/dL | K (9 h): 3.8 meq/L | LDH (9 h): 230 IU/L | Na (9 h): 141.2 meq/L | PL (9 h): 124.8 mg/dL | RALB (9 h): 3.4 g/dL | TBIL (9 h): 0.1 mg/dL | TC (9 h): 65 mg/dL | TG (9 h): 56.8 mg/dL | TP (9 h): 5.7 g/dL | gamma-GTP (9 h): 1 IU/L | TERMINAL_BW (24 h): 221.4 g | APTT (24 h): 21.7 s | Bas (24 h): 0.2% | Eos (24 h): 1% | Fbg (24 h): 215.6 mg/dL | Hb (24 h): 14.6 g/dL | Ht (24 h): 42% | Lym (24 h): 76.8% | MCH (24 h): 22.2 pg | MCHC (24 h): 34.7% | MCV (24 h): 63.8 fL | Mono (24 h): 5% | Neu (24 h): 16.6% | PT (24 h): 14.5 s | Plat (24 h): 140.8 x10_4/uL | RBC (24 h): 658.2 x10_4/ul | Ret (24 h): 6.5% | WBC (24 h): 91.5 x10_2/uL | KIDNEY_L (24 h): 1 g | KIDNEY_R (24 h): 1 g | KIDNEY_TOTAL (24 h): 2.1 g | LIVER (24 h): 11.2 g | A/G (24 h): 1.8 | ALP (24 h): 1020 IU/L | ALT (24 h): 37.8 IU/L | AST (24 h): 74 IU/L | BUN (24 h): 17.2 mg/dL | CRE (24 h): 0.4 mg/dL | Ca (24 h): 10.4 mg/dL | Cl (24 h): 105.4 meq/L | DBIL (24 h): 0.1 mg/dL | GLC (24 h): 187.8 mg/dL | IP (24 h): 8.4 mg/dL | K (24 h): 4.6 meq/L | LDH (24 h): 207.4 IU/L | Na (24 h): 140.6 meq/L | PL (24 h): 120.8 mg/dL | RALB (24 h): 3.3 g/dL | TBIL (24 h): 0.2 mg/dL | TC (24 h): 52 mg/dL | TG (24 h): 120.6 mg/dL | TP (24 h): 5.1 g/dL | gamma-GTP (24 h): 1.4 IU/L

Reference: ChEMBL document CHEMBL3885861, “Open TG-GATES”
